Holding throughout (format): cell-based
One assay has as its system BHK-21 cells. Nature of the assay: Anti-fibrosis activity test: inhibition of BHK-21 cell proliferation (CCK-8). Particulars: Mesocricetus auratus, BHK-21, 48 h, CCK-8, 48 hours after administration. A digest of the protocol: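 BHK-21 cells seeded at 2×10^4 cells/mL, allowed to adhere 24 h at 37° C, 5% CO2, then exposed to compounds at graded concentrations in triplicate for 48 h. CCK-8 added for 2 h and absorbance read at 450 nm; inhibition rate taken as (1−Ai/Ao)×100% and IC50 fitted.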

The subject of assay [1] is human lung fibroblasts HFL1. Nature of the assay: Anti-fibrosis activity test: inhibition of proliferation of human lung fibroblasts HFL1 (CCK-8). To be noted: Homo sapiens, HFL1, 48 h, human lung fibroblasts HFL1, CCK-8, 48 hours. A digest of the protocol:
(§1)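 A CCK-8 proliferation assay was run: cells at 2×10^4 cells/mL, adherent for 24 h, then incubated 48 h at 37° C with compound dilutions. A450 was recorded 2 h after CCK-8 addition and converted to percent inhibition versus blank for IC50 determination.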

Assay [2] has as its system human hepatic stellate cells LX-2. The experiment in a line: Anti-fibrosis activity test: inhibition of proliferation of human hepatic stellate cells LX-2 (CCK-8). To be noted: Homo sapiens, 48 h, human hepatic stellate cells LX-2, CCK-8, 48 hours. A digest of the protocol:
as §1

The test system of assay [3] is human fibrosarcoma cells HT-1080. The experiment in a line: Anti-fibrosis activity test: inhibition of proliferation of human fibrosarcoma cells HT-1080 (CCK-8). To be noted: Homo sapiens, HT-1080, 48 h, human fibrosarcoma cells HT-1080, CCK-8, 48 hours. In outline: as §1
The subject of assay [4] is human dermal fibroblasts CCC-ESF-1. The experiment in a line: Anti-fibrosis activity test: inhibition of proliferation of human dermal fibroblasts CCC-ESF-1 (CCK-8). To be noted: Fibroblast; human dermal fibroblasts CCC-ESF-1, CCK-8, 48 hours. A digest of the protocol: as §1
The test system of assay [5] is human embryonic lung fibroblast IMR-90. The experiment in a line: Anti-fibrosis activity test: inhibition of proliferation of human embryonic lung fibroblast IMR-90 (CCK-8). To be noted: human embryonic lung fibroblast IMR-90, CCK-8, 48 hours. A digest of the protocol:
as §1

The test system of assay [6] is cardiac fibroblast RAT-iCell-C002. Nature of the assay: Anti-fibrosis activity test: inhibition of proliferation of cardiac fibroblast RAT-iCell-C002 (CCK-8). Particulars: Cardiac fibroblast, 48 h, cardiac fibroblast RAT-iCell-C002, CCK-8, 48 hours. A digest of the protocol:
as §1

Another assay deals with NF-κB. Nature of the assay: Immunological activity test: inhibition of NF-κB activity. Particulars: initial concentration of 30 μM; a/b isomers given as first/second symbol; read-out: IC50 (μM), inhibitory activity against NF-κB. In outline:
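Single-point testing at 30 μM preceded IC50 determination.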

Assay [7] concerns mouse macrophages (RAW264.7). The experiment in a line: Lipopolysaccharide-induced NO secretion in macrophages (Griess). To be noted: Mus musculus, RAW264.7, 24 h, RAW264.7, LPS 1 μg/ml, a/b isomers given as first/second symbol, read-out: IC50 (μM), inhibition of lipopolysaccharide-induced NO secretion in macrophages. In outline:
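Absorbance at 548 nm after Griess reagent addition to culture supernatant gave NO content; inhibition rate was derived relative to blank control. Cells were mouse RAW264.7 macrophages exposed to compounds and 1 μg/ml LPS for 24 hours.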

With `O=C1c2c(nc3ccccc3c2OCc2ccc(OC(F)(F)F)cc2)-c2cccn21` [Compound 592b, 9-((4-(trifluoromethoxy)benzyl)oxy)-10H-pyrrolizino[1,2-b]quinolin-10-one], the IC50 (in the assay with BHK-21 cells; in assay [1]; in assay [2]; in assay [3]; in [4]; in [5]) was 0.05 to 5 mM each time. Moreover, the IC50 in [6] was 0.05 to 5 mM; with NF-κB, 1 to 10 µM; in assay [7], 1 to 10 µM.
For `O=C1c2c(n(Cc3ccc([N+](=O)[O-])cc3)c3ccccc3c2=O)-c2cccn21` [Compound 593a, 4-(4-Nitrobenzyl)-9H-pyrrolizino[1,2-b]quinoline-9,10(4H)-dione], the IC50 (with BHK-21 cells; in assay [1]; in assay [2]; in assay [3]; in assay [4]; in assay [5]) was 0.05 to 5 mM throughout. In addition, the IC50 lay within 0.05 to 5 mM in assay [6], 0.1 to 1 µM in the assay with NF-κB and 1 to 10 µM in assay [7].
Take `O=C1c2c(nc3ccccc3c2OCc2ccc([N+](=O)[O-])cc2)-c2cccn21` [Compound 593b, 9-((4-nitrobenzyl)oxy)-10H-pyrrolizino[1,2-b]quinolin-10-one]: the IC50 (in the assay with BHK-21 cells; in assay [1]; in assay [2]; in [3]; in assay [4]; in assay [5]) was 0.05 to 5 mM each time. Besides, the IC50 is 0.05 to 5 mM in assay [6], 1 to 10 µM in the assay on NF-κB and 1 to 10 µM in [7].
Regarding `O=C1c2c(n(Cc3ccc(Br)cc3)c3ccccc3c2=O)-c2cccn21` [Compound 594a, 4-(4-Bromobenzyl)-9H-pyrrolizino[1,2-b]quinoline-9,10(4H)-dione], the IC50 with BHK-21 cells is under 0.05 mM; in assay [1], 0.05 to 5 mM; in assay [2], 0.05 to 5 mM; in assay [3], 0.05 to 5 mM; in [4] it was 0.05 to 5 mM; in assay [5] it was 0.05 to 5 mM. Also, the IC50 in [6] lay in the range of 0.05 to 5 mM; with NF-κB, 0.1 to 1 µM; in [7], 1 to 10 µM.
As to `O=C1c2c(nc3ccccc3c2OCc2ccc(Br)cc2)-c2cccn21` [Compound 594b, 9-((4-bromobenzyl)oxy)-10H-pyrrolizino[1,2-b]quinolin-10-one], the IC50 (in the assay with BHK-21 cells; in assay [1]; in assay [2]; in [3]; in [4]; in assay [5]) was 0.05 to 5 mM throughout. The figures for the IC50 (in assay [6]; with NF-κB; in assay [7]) were 0.05 to 5 mM, 1 to 10 µM and 1 to 10 µM, respectively.
Regarding `O=C1c2c(n(Cc3cccc(F)c3)c3ccccc3c2=O)-c2cccn21` [Compound 595a, 4-(3-Fluorobenzyl)-9H-pyrrolizino[1,2-b]quinoline-9,10(4H)-dione], the IC50 with BHK-21 cells was 0.05 to 5 mM; in [1], 0.05 to 5 mM; in [2], 0.05 to 5 mM; in [3] it was 0.05 to 5 mM; in [4] it was under 0.05 mM; in assay [5], 0.05 to 5 mM. For the same compound, the IC50 lay in the range of 0.05 to 5 mM in assay [6], 1 to 10 µM in the assay with NF-κB and 0.1 to 1 µM in [7].
Take `O=C1c2c(nc3ccccc3c2OCc2cccc(F)c2)-c2cccn21` [Compound 595b, 9-((3-fluorobenzyl)oxy)-10H-pyrrolizino[1,2-b]quinolin-10-one]: the IC50 (with BHK-21 cells; in [1]; in assay [2]; in [3]; in assay [4]; in assay [5]) was 0.05 to 5 mM in each case. The IC50 in assay [6] fell in the range of 0.05 to 5 mM; in the assay on NF-κB, 1 to 10 µM; in assay [7] it was 0.1 to 1 µM.
On to `O=C1c2c(n(Cc3cccc(Cl)c3)c3ccccc3c2=O)-c2cccn21` [Compound 596a, 4-(3-Chlorobenzyl)-9H-pyrrolizino[1,2-b]quinoline-9,10(4H)-dione], for which the IC50 (with BHK-21 cells; in [1]; in assay [2]; in assay [3]; in [4]; in assay [5]) was 0.05 to 5 mM in each case. Also, the IC50 in assay [6] fell in the range of 0.05 to 5 mM; in the assay with NF-κB, 1 to 10 µM; in [7], 1 to 10 µM.
As to `O=C1c2c(nc3ccccc3c2OCc2cccc(Cl)c2)-c2cccn21` [Compound 596b, 9-((3-chlorobenzyl)oxy)-10H-pyrrolizino[1,2-b]quinolin-10-one], the IC50 (in the assay with BHK-21 cells; in assay [1]; in assay [2]; in [3]; in assay [4]; in assay [5]) was 0.05 to 5 mM in each case. The IC50 lay within 0.05 to 5 mM in [6], 1 to 10 µM in the assay with NF-κB and 1 to 10 µM in assay [7].
`N#Cc1cccc(Cn2c3c(c(=O)c4ccccc42)C(=O)n2cccc2-3)c1` [Compound 597a, 3-((9,10-Dioxo-9H-pyrrolizino[1,2-b]quinolin-4(10H)-yl)methyl)benzonitrile]: the IC50 (in the assay on BHK-21 cells; in assay [1]; in assay [2]; in assay [3]; in [4]; in assay [5]) was 0.05 to 5 mM in each case. Also, the IC50 was in the range of 0.05 to 5 mM in assay [6], 1 to 10 µM with NF-κB and 1 to 10 µM in assay [7].
On to `N#Cc1cccc(COc2c3c(nc4ccccc24)-c2cccn2C3=O)c1` [Compound 597b, 3-(((10-oxo-10H-pyrrolizino[1,2-b]quinolin-9-yl)oxy)methyl)benzonitrile], for which the IC50 (with BHK-21 cells; in assay [1]; in [2]; in [3]; in assay [4]; in assay [5]) was 0.05 to 5 mM in each case. The IC50 in [6] is 0.05 to 5 mM; in the assay with NF-κB, 1 to 10 µM; in assay [7] it was 1 to 10 µM.
Regarding `O=C1c2c(n(Cc3cccc(C(F)(F)F)c3)c3ccccc3c2=O)-c2cccn21` [Compound 598a, 4-(3-(Trifluoromethyl)benzyl)-9H-pyrrolizino[1,2-b]quinoline-9,10(4H)-dione], the IC50 (in the assay with BHK-21 cells; in [1]; in [2]; in assay [3]; in assay [4]; in [5]) was 0.05 to 5 mM throughout. Moreover, the figures for the IC50 (in assay [6]; in the assay on NF-κB; in [7]) were 0.05 to 5 mM, 1 to 10 µM and 1 to 10 µM, respectively.
For `O=C1c2c(nc3ccccc3c2OCc2cccc(C(F)(F)F)c2)-c2cccn21` [Compound 598b, 9-((3-(trifluoromethyl)benzyl)oxy)-10H-pyrrolizino[1,2-b]quinolin-10-one], the IC50 (in the assay on BHK-21 cells; in assay [1]; in assay [2]; in assay [3]; in [4]; in [5]) was 0.05 to 5 mM in each case. The IC50 in [6] lay in the range of 0.05 to 5 mM; in the assay with NF-κB it was 1 to 10 µM; in assay [7], 1 to 10 µM.
In the case of `O=C1c2c(n(Cc3ccccc3F)c3ccccc3c2=O)-c2cccn21` [Compound 599a, 4-(2-Fluorobenzyl)-9H-pyrrolizino[1,2-b]quinoline-9,10(4H)-dione], the IC50 (in the assay with BHK-21 cells; in assay [1]; in [2]; in [3]; in [4]; in assay [5]) was 0.05 to 5 mM each time. The IC50 in [6] was in the range of 0.05 to 5 mM; with NF-κB, 0.1 to 1 µM; in assay [7], 1 to 10 µM.
For `O=C1c2c(nc3ccccc3c2OCc2ccccc2F)-c2cccn21` [Compound 599b, 9-((2-fluorobenzyl)oxy)-10H-pyrrolizino[1,2-b]quinolin-10-one], the IC50 (in the assay with BHK-21 cells; in [1]; in assay [2]; in assay [3]; in assay [4]; in assay [5]) was 0.05 to 5 mM throughout. Moreover, the IC50 was in the range of 0.05 to 5 mM in assay [6], 1 to 10 µM with NF-κB and 1 to 10 µM in assay [7].

The values are drawn from patent US11040028B2, “Penicinotam derivative, preparation method and use thereof” (OCEAN UNIVERSITY OF CHINA, priority 2017, dated 2021).
